Measured values from PubChem BioAssay (NCI).
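Exposure lasted 48 hours, with cells grown in 96-well plates and compounds tested at five concentrations. At the TGI there is no net growth.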

Assays:
Assay in all cases: NCI tumour cell line growth inhibition, 48 h
[1] = test system: 786-0 renal
[2] = test system: A549 NSCLC
[3] = test system: ACHN renal
[4] = test system: CAKI-1 renal
[5] = test system: CCRF-CEM leukemia
[6] = test system: COLO 205 colon
[7] = test system: DLD-1 colon
[8] = test system: DMS 114 small cell lung
[9] = test system: DMS 273 small cell lung
[10] = test system: EKVX NSCLC
[11] = test system: HCC-2998 colon
[12] = test system: HCT-116 colon
[13] = test system: HCT-15 colon
[14] = test system: HL-60(TB) leukemia
[15] = test system: HOP-62 NSCLC
[16] = test system: HOP-92 NSCLC
[17] = test system: HT29 colon
[18] = test system: IGROV1 ovarian
[19] = test system: K-562 leukemia
[20] = test system: KM12 colon
[21] = test system: KM20L2 colon
[22] = test system: LOX IMVI melanoma
[23] = test system: LXFL 529 NSCLC
[24] = test system: M14 melanoma
[25] = test system: M19-MEL melanoma
[26] = test system: MALME-3M melanoma
[27] = test system: MOLT-4 leukemia
[28] = test system: NCI-H226 lung
[29] = test system: NCI-H23 lung
[30] = test system: NCI-H460 lung
[31] = test system: NCI-H522 lung
[32] = test system: OVCAR-3 ovarian
[33] = test system: OVCAR-4 ovarian
[34] = test system: OVCAR-5 ovarian
[35] = test system: OVCAR-8 ovarian
[36] = test system: RPMI-8226 leukemia
[37] = test system: RXF 393 renal
[38] = test system: RXF-631 renal
[39] = test system: SF-268 CNS
[40] = test system: SF-295 CNS
[41] = test system: SF-539 CNS
[42] = test system: SK-MEL-2 melanoma
[43] = test system: SK-MEL-28 melanoma
[44] = test system: SK-MEL-5 melanoma
[45] = test system: SK-OV-3 ovarian
[46] = test system: SN12C renal
[47] = test system: SNB-19 CNS
[48] = test system: SNB-75 CNS
[49] = test system: SNB-78 CNS
[50] = test system: SR leukemia
[51] = test system: SW-620 colon
[52] = test system: TK-10 renal
[53] = test system: U251 CNS
[54] = test system: UACC-257 melanoma
[55] = test system: UACC-62 melanoma
[56] = test system: UO-31 renal
[57] = test system: XF 498 CNS
[58] = test system: A498 renal
[59] = test system: BT-549 breast
[60] = test system: DU-145 prostate
[61] = test system: HS 578T breast
[62] = test system: MCF7 breast
[63] = test system: MDA-MB-231 breast
[64] = test system: MDA-MB-435
[65] = test system: MDA-N
[66] = test system: NCI/ADR-RES ovarian
[67] = test system: PC-3 prostate
[68] = test system: T-47D breast

## COC1=CC(=Nc2c(Cl)cc(Cl)cc2OC(=O)c2ccc([N+](=O)[O-])cc2)C=C(OC)C1=O
[1]
  TGI: 28 µM
[2]
  TGI: 23.4 µM
[3]
  TGI: 22.6 µM
[4]
  TGI: 31.7 µM
[5]
  TGI: > 25.9 µM
[6]
  TGI: 33.6 µM
[7]
  TGI: 30 µM
[8]
  TGI: 8.52 µM
[9]
  TGI: 30.5 µM
[10]
  TGI: 29.5 µM
[11]
  TGI: 32.4 µM
[12]
  TGI: 18.9 µM
[13]
  TGI: 20.8 µM
[14]
  TGI: 12.1 µM
[15]
  TGI: 36.2 µM
[16]
  TGI: 14.8 µM
[17]
  TGI: 33.5 µM
[18]
  TGI: 31.2 µM
[19]
  TGI: 27 µM
[20]
  TGI: 29.4 µM
[21]
  TGI: 32.8 µM
[22]
  TGI: 5.67 µM
[23]
  TGI: 18.5 µM
[24]
  TGI: 25.8 µM
[25]
  TGI: 10.8 µM
[26]
  TGI: 28.9 µM
[27]
  TGI: 26.7 µM
[28]
  TGI: 28.7 µM
[29]
  TGI: 22.9 µM
[30]
  TGI: 31.3 µM
[31]
  TGI: 23.6 µM
[32]
  TGI: 20.9 µM
[33]
  TGI: 21.9 µM
[34]
  TGI: 33.7 µM
[35]
  TGI: 20.2 µM
[36]
  TGI: > 39.1 µM
[37]
  TGI: 24.6 µM
[38]
  TGI: 11.1 µM
[39]
  TGI: 23.2 µM
[40]
  TGI: 23.7 µM
[41]
  TGI: 23.4 µM
[42]
  TGI: 29.9 µM
[43]
  TGI: 30.5 µM
[44]
  TGI: 20.4 µM
[45]
  TGI: 30.8 µM
[46]
  TGI: 24.3 µM
[47]
  TGI: 30 µM
[48]
  TGI: 27.8 µM
[49]
  TGI: 56.9 µM
[50]
  TGI: 15.3 µM
[51]
  TGI: 26.8 µM
[52]
  TGI: 37.4 µM
[53]
  TGI: 27.1 µM
[54]
  TGI: 24.2 µM
[55]
  TGI: 15.6 µM
[56]
  TGI: 24.3 µM
[57]
  TGI: 21.5 µM

## CCOC(=O)C(C)c1c(C(=O)c2ccc(C)nc2)c2ccccc2n1C (stereo not given)
[1]
  TGI: > 100 µM
[2]
  TGI: > 100 µM
[3]
  TGI: > 100 µM
[4]
  TGI: > 100 µM
[5]
  TGI: > 100 µM
[6]
  TGI: > 100 µM
[7]
  TGI: > 100 µM
[8]
  TGI: > 100 µM
[9]
  TGI: > 100 µM
[10]
  TGI: > 100 µM
[11]
  TGI: > 100 µM
[13]
  TGI: > 100 µM
[14]
  TGI: > 100 µM
[15]
  TGI: > 100 µM
[16]
  TGI: > 100 µM
[17]
  TGI: > 100 µM
[18]
  TGI: > 100 µM
[19]
  TGI: > 100 µM
[20]
  TGI: > 100 µM
[21]
  TGI: > 100 µM
[22]
  TGI: > 100 µM
[23]
  TGI: > 100 µM
[24]
  TGI: > 100 µM
[25]
  TGI: > 100 µM
[26]
  TGI: > 100 µM
[27]
  TGI: > 100 µM
[29]
  TGI: > 100 µM
[30]
  TGI: > 100 µM
[31]
  TGI: > 100 µM
[32]
  TGI: > 100 µM
[33]
  TGI: > 100 µM
[34]
  TGI: > 100 µM
[35]
  TGI: > 100 µM
[36]
  TGI: > 100 µM
[37]
  TGI: > 100 µM
[38]
  TGI: > 100 µM
[39]
  TGI: > 100 µM
[40]
  TGI: > 100 µM
[42]
  TGI: > 100 µM
[43]
  TGI: > 100 µM
[44]
  TGI: > 100 µM
[45]
  TGI: > 100 µM
[46]
  TGI: > 100 µM
[48]
  TGI: > 100 µM
[49]
  TGI: > 100 µM
[51]
  TGI: > 100 µM
[52]
  TGI: > 100 µM
[54]
  TGI: > 100 µM
[55]
  TGI: > 100 µM
[57]
  TGI: > 100 µM

## CN(C)CCNc1ccc2nnn3c4ccccc4c(=O)c1c23
[1]
  TGI: 16.5 µM
[58]
  TGI: 8.96 µM
[2]
  TGI: 6.56 µM
[3]
  TGI: 7.01 µM
[59]
  TGI: 32.3 µM
[4]
  TGI: 18.5 µM
[5]
  TGI: 20.6 µM
[6]
  TGI: 5.9 µM
[7]
  TGI: 22.9 µM
[8]
  TGI: 12.7 µM
[9]
  TGI: 11.5 µM
[60]
  TGI: 9.68 µM
[10]
  TGI: 13.4 µM
[11]
  TGI: 13.1 µM
[12]
  TGI: 13.7 µM
[13]
  TGI: 13 µM
[14]
  TGI: 15.7 µM
[15]
  TGI: 14.2 µM
[16]
  TGI: 9.6 µM
[61]
  TGI: 9.8 µM
[17]
  TGI: 11 µM
[18]
  TGI: 26.5 µM
[19]
  TGI: 18.9 µM
[20]
  TGI: 13.9 µM
[21]
  TGI: 11.6 µM
[22]
  TGI: 3.72 µM
[23]
  TGI: 17.5 µM
[24]
  TGI: 9.03 µM
[25]
  TGI: 9.42 µM
[26]
  TGI: 10.4 µM
[62]
  TGI: 25.2 µM
[63]
  TGI: 15.3 µM
[64]
  TGI: 13.8 µM
[65]
  TGI: 12.4 µM
[27]
  TGI: 21 µM
[28]
  TGI: 5.28 µM
[29]
  TGI: 11.6 µM
[30]
  TGI: 7.16 µM
[31]
  TGI: 8.31 µM
[66]
  TGI: 9.82 µM
[32]
  TGI: 12.8 µM
[33]
  TGI: 9.44 µM
[34]
  TGI: 11.4 µM
[35]
  TGI: 9.91 µM
[67]
  TGI: 7.79 µM
[36]
  TGI: 23.9 µM
[37]
  TGI: 16.6 µM
[38]
  TGI: 10.3 µM
[39]
  TGI: 18.8 µM
[40]
  TGI: 13.8 µM
[41]
  TGI: 15.6 µM
[42]
  TGI: 13.9 µM
[43]
  TGI: 15.1 µM
[44]
  TGI: 5.35 µM
[45]
  TGI: 33.2 µM
[46]
  TGI: 19.9 µM
[47]
  TGI: 34.8 µM
[48]
  TGI: 10.4 µM
[49]
  TGI: 30.5 µM
[50]
  TGI: > 32.8 µM
[51]
  TGI: 11 µM
[68]
  TGI: 32.3 µM
[52]
  TGI: 12.7 µM
[53]
  TGI: 7.63 µM
[54]
  TGI: 11.4 µM
[55]
  TGI: 11.6 µM
[56]
  TGI: 8.6 µM
[57]
  TGI: 19.5 µM

## O=C(Cc1nc2ccccc2o1)C(=O)Nc1ccccc1C(F)(F)F
[1]
  TGI: > 100 µM
[58]
  TGI: > 100 µM
[2]
  TGI: > 100 µM
[3]
  TGI: > 100 µM
[4]
  TGI: > 100 µM
[5]
  TGI: > 100 µM
[6]
  TGI: > 100 µM
[7]
  TGI: > 100 µM
[8]
  TGI: > 100 µM
[9]
  TGI: > 100 µM
[10]
  TGI: > 100 µM
[11]
  TGI: > 100 µM
[12]
  TGI: > 100 µM
[13]
  TGI: > 100 µM
[14]
  TGI: > 100 µM
[15]
  TGI: > 100 µM
[16]
  TGI: > 100 µM
[17]
  TGI: > 100 µM
[18]
  TGI: > 100 µM
[19]
  TGI: > 100 µM
[20]
  TGI: > 100 µM
[21]
  TGI: > 100 µM
[22]
  TGI: > 100 µM
[23]
  TGI: > 100 µM
[24]
  TGI: > 100 µM
[25]
  TGI: > 100 µM
[26]
  TGI: > 100 µM
[28]
  TGI: > 100 µM
[29]
  TGI: > 100 µM
[30]
  TGI: > 100 µM
[31]
  TGI: > 100 µM
[32]
  TGI: > 100 µM
[33]
  TGI: > 100 µM
[34]
  TGI: > 100 µM
[35]
  TGI: > 100 µM
[36]
  TGI: > 100 µM
[37]
  TGI: > 100 µM
[38]
  TGI: > 100 µM
[39]
  TGI: > 100 µM
[40]
  TGI: > 100 µM
[41]
  TGI: > 100 µM
[42]
  TGI: > 100 µM
[44]
  TGI: > 100 µM
[45]
  TGI: > 100 µM
[46]
  TGI: > 100 µM
[47]
  TGI: > 100 µM
[48]
  TGI: > 100 µM
[49]
  TGI: > 100 µM
[51]
  TGI: > 100 µM
[52]
  TGI: > 100 µM
[53]
  TGI: > 100 µM
[54]
  TGI: > 100 µM
[55]
  TGI: > 100 µM
[56]
  TGI: > 100 µM
[57]
  TGI: > 100 µM
